Measurements as given in ChEMBL document CHEMBL1134164, “Antifungal activity of octyl gallate: structural criteria and mode of action” (2001).
≈ marks a conversion by molar mass, not a printed value. Calls of active or inactive are those of the source.

How the values were obtained:
[1] = system: Saccharomyces cerevisiae; test: Minimum fungicidal concentration against Saccharomyces cerevisiae; type: functional
[2] = system: Saccharomyces cerevisiae; test: Minimum fungicidal concentration against Saccharomyces cerevisiae (Inactive); type: functional, organism-based
[3] = system: Aspergillus niger; test: Antifungicidal activity against Aspergillus niger was determined; type: functional
[4] = system: Aspergillus niger; test: Inhibitory activity against Aspergillus niger was determined; type: functional
[5] = system: Bacillus subtilis; test: Antimicrobial activity against Bacillus subtilis was determined; type: functional
[6] = system: Corynebacterium ammoniagenes; test: Antimicrobial activity against Brevibacterium ammoniagenes was determined; type: functional
[7] = system: Candida albicans; test: Inhibitory activity against Candida albicans was determined; type: functional
[8] = system: Candida albicans; test: Antifungicidal activity against Candida albicans was determined; type: functional
[9] = system: Klebsiella aerogenes; test: Antimicrobial activity against Enterobacter aerogenes was determined; type: functional
[10] = system: Escherichia coli; test: Antimicrobial activity against Escherichia coli was determined; type: functional
[11] = system: Micrococcus luteus; test: Antimicrobial activity against Micrococcus luteus was determined; type: functional
[12] = system: Proteus vulgaris; test: Antimicrobial activity against Proteus vulgaris was determined; type: functional
[13] = system: Pseudomonas aeruginosa; test: Inhibitory activity against Pseudomonas aeruginosa was determined; type: functional
[14] = system: Cutibacterium acnes; test: Antimicrobial activity against Propionibacterium acnes was determined; type: functional
[15] = system: Proteus vulgaris; test: Inhibitory activity against Proteus vulgaris was determined; type: functional
[16] = system: Pseudomonas aeruginosa; test: Antimicrobial activity against Pseudomonas aeruginosa was determined; type: functional
[17] = system: Salmonella enterica; test: Antimicrobial activity against Salmonella choleraesuis was determined; type: functional
[18] = system: Staphylococcus aureus; test: Inhibitory activity against Staphylococcus aureus (MRSA) was determined; type: functional
[19] = system: Staphylococcus aureus; test: Antimicrobial activity against Staphylococcus aureus was determined; type: functional
[20] = system: Saccharomyces cerevisiae; test: Antifungicidal activity against Saccharomyces cerevisiae was determined; type: functional
[21] = system: Saccharomyces cerevisiae; test: Inhibitory activity against Saccharomyces cerevisiae was determined; type: functional
[22] = system: Staphylococcus aureus; test: Antimicrobial activity against Staphylococcus aureus (MRSA) was determined; type: functional
[23] = system: Streptococcus mutans; test: Antimicrobial activity against Streptococcus mutans was determined; type: functional
[24] = system: Zygosaccharomyces bailii; test: Antifungicidal activity against Zygosaccharomyces bailii was determined; type: functional
[25] = system: Cutibacterium acnes; test: Inhibitory activity against Propionibacterium acnes was determined; type: functional
[26] = system: Zygosaccharomyces bailii; test: Inhibitory activity against Zygosaccharomyces bailii was determined; type: functional
[27] = system: Escherichia coli; test: Inhibitory activity against Escherichia coli was determined
[28] = system: Micrococcus luteus; test: Inhibitory activity against Micrococcus luteus was determined
[29] = system: Streptococcus mutans; test: Inhibitory activity against Streptococcus mutans was determined
[30] = system: Staphylococcus aureus; test: Inhibitory activity against Staphylococcus aureus was determined
[31] = system: Klebsiella aerogenes; test: Inhibitory activity against Enterobacter aerogenes was determined
[32] = system: Corynebacterium ammoniagenes; test: Inhibitory activity against Brevibacterium ammoniagenes was determined
[33] = system: Corynebacterium ammoniagenes; test: Inhibitory activity against Brevibacterium ammoniagenes was determined; type: functional
[34] = system: Klebsiella aerogenes; test: Inhibitory activity against Enterobacter aerogenes was determined; type: functional
[35] = system: Escherichia coli; test: Inhibitory activity against Escherichia coli was determined; type: functional
[36] = system: Micrococcus luteus; test: Inhibitory activity against Micrococcus luteus was determined; type: functional
[37] = system: Staphylococcus aureus; test: Inhibitory activity against Staphylococcus aureus was determined; type: functional
[38] = system: Streptococcus mutans; test: Inhibitory activity against Streptococcus mutans was determined; type: functional

SMILES	MFC [1] [µg/mL]	MFC [3] [µg/mL]	MFC [4] [µg/mL]	MBC [5] [µg/mL]	MBC [6] [µg/mL]	MFC [7] [µg/mL]	MFC [8] [µg/mL]	MBC [9] [µg/mL]	MBC [10] [µg/mL]	MBC [11] [µg/mL]	MBC [12] [µg/mL]	MIC [13] [µg/mL]	MBC [14] [µg/mL]	MIC [15] [µg/mL]	MBC [16] [µg/mL]	MBC [17] [µg/mL]	MIC [18] [µg/mL]	MBC [19] [µg/mL]	MFC [20] [µg/mL]	MFC [21] [µg/mL]	also measured
CCCCCCCOC(=O)/C=C/c1ccc(O)c(O)c1	50 (≈ 180 µM)																				
CCCCCCCCCC(=O)Oc1ccc(O)c(O)c1	50 (≈ 178 µM)																				
CCCCCCCCOC(=O)c1cccc(O)c1O																					MIC [2]: inactive
CCCCCCCCCCCCOC(=O)c1cc(O)c(O)c(O)c1 [DODECYL GALLATE]		> 400	> 400	25 (≈ 73.9 µM)	25 (≈ 73.9 µM)	> 400	> 400	> 800	> 800	25 (≈ 73.9 µM)	> 800	> 800	6.25 (≈ 18.5 µM)	> 800	> 800	50 (≈ 148 µM)	12.5 (≈ 36.9 µM)	25 (≈ 73.9 µM)	> 1600	> 1600	MBC [22]: 25 µg/mL (≈ 73.9 µM); MBC [23]: 100 µg/mL (≈ 295 µM); MFC [24]: > 1600 µg/mL; MIC [25]: 6.25 µg/mL (≈ 18.5 µM); MIC [26]: > 1600 µg/mL; MIC [27]: > 800 µg/mL; MIC [28]: 12.5 µg/mL (≈ 36.9 µM); MIC [29]: 100 µg/mL (≈ 295 µM); MIC [30]: 12.5 µg/mL (≈ 36.9 µM); MIC [31]: > 800 µg/mL; MIC [32]: 12.5 µg/mL (≈ 36.9 µM)
CC(C)=CCC/C(C)=C/COC(=O)c1cc(O)c(O)c(O)c1 [Geranyl gallate]	50 (≈ 163 µM)																				
CCCCCCCCOC(=O)c1cc(O)c(O)c(O)c1 [OCTYL_GALLATE]		100 (≈ 354 µM)	50 (≈ 177 µM)	25 (≈ 88.5 µM)	50 (≈ 177 µM)	25 (≈ 88.5 µM)	25 (≈ 88.5 µM)	> 800	> 800	25 (≈ 88.5 µM)	50 (≈ 177 µM)	> 800	25 (≈ 88.5 µM)	25 (≈ 88.5 µM)	> 800	12.5 (≈ 44.3 µM)	25 (≈ 88.5 µM)	50 (≈ 177 µM)	25 (≈ 88.5 µM)	25 (≈ 88.5 µM)	MIC [33]: 25 µg/mL (≈ 88.5 µM); MIC [34]: > 800 µg/mL; MIC [35]: > 800 µg/mL; MIC [36]: 12.5 µg/mL (≈ 44.3 µM); MIC [37]: 25 µg/mL (≈ 88.5 µM); MIC [38]: 50 µg/mL (≈ 177 µM); MBC [22]: 50 µg/mL (≈ 177 µM); MBC [23]: 50 µg/mL (≈ 177 µM); MFC [24]: 50 µg/mL (≈ 177 µM); MIC [25]: 25 µg/mL (≈ 88.5 µM); MIC [26]: 50 µg/mL (≈ 177 µM)
CCCOC(=O)c1cc(O)c(O)c(O)c1 [PROPYL GALLATE]		> 3200	> 3200	1600 (≈ 7540 µM)	3200 (≈ 15100 µM)	3200 (≈ 15100 µM)	> 3200	> 3200	1600 (≈ 7540 µM)	3200 (≈ 15100 µM)	400 (≈ 1890 µM)	3200 (≈ 15100 µM)	800 (≈ 3770 µM)	400 (≈ 1890 µM)	> 3200	> 3200	1600 (≈ 7540 µM)	3200 (≈ 15100 µM)	> 3200	3200 (≈ 15100 µM)	MIC [33]: 1600 µg/mL (≈ 7540 µM); MIC [34]: 3200 µg/mL (≈ 15100 µM); MIC [35]: 1600 µg/mL (≈ 7540 µM); MIC [36]: 1600 µg/mL (≈ 7540 µM); MIC [37]: 1600 µg/mL (≈ 7540 µM); MIC [38]: 400 µg/mL (≈ 1890 µM); MBC [22]: 3200 µg/mL (≈ 15100 µM); MBC [23]: 800 µg/mL (≈ 3770 µM); MFC [24]: > 3200 µg/mL; MIC [25]: 800 µg/mL (≈ 3770 µM); MIC [26]: > 3200 µg/mL
